# According to patent US8268635B2, “Methods of identifying agents that selectively activate p38 and/or NKkB signaling” (priority 2006, dated 2012):
# Where no end group is shown, it is not given here.
# Tests used:
# [1] = system: p38; assay: p38 kinase activity in human neutrophils; format: cell-based; settings: 5 min; TNF 100 or 1000 U/ml, TNF70-80 10-50 μM
# Protocol: (§1) The cells were lysed and the lysate assessed by western blot analysis for the level of dual-phosphorylated ERK1/ERK2 (top panel) and ERK2 protein (bottom panel). […] The level of myelin basic protein phosphorylation was quantitated by an Instant Imager.
# (§2) Neutrophils were prepared from peripheral blood of healthy donors by a rapid single-step technique (Kumaratilake, L. M., Rathjen, D. A., Mack, P., Widmer, F., Prasertsiriroj, V., and Ferrante, A. (1995) J. Clin. Invest. 95: 2315-2323) using Hypaque-Ficoll and according to the institution's guidelines on human ethics. […] These were either used as cells in suspension or as adhered neutrophils by adding the cells to plasma coated plates as previously described (Powell, W., Gravel, S., Halwani, F., Hii, C. S., Huang, Z. H., Tan, A. M., and Ferrante, A. (1997) J. Immunol. 159: 2952-2959).
# (§3) KHS (hereon referred to as “GCKR”) activity was assayed as described previously using myelin basic protein as a substrate (Shi, C. S., Leonardi, A., Kyriakis, J., Siebenlist, U., and Kerhl, J. H. (1999) J. Immunol. 163: 3279-3285). ASK-1 activation was determined in immunoprecipitates of ASK-1 by autophosphorylation (Kyriakis, J. M., and Auruch, J. (2001) Physiol. Rev. 81: 807-869). p38 and ERK activities were determined as described using myelin basic protein as a substrate (Hii, C. S., Huang, Z. H., Bilney, A., Costabile, M., Murray, A. W., Rathjen, D. A., Der, C. J., and Ferrante, A. (1998) J. Biol. Chem. 273: 19277-19282). […] A solid phase assay using glutathione-S-transferase (GST)-conjugated-jun (1-79) was employed to assay JNK activity (Hii, C. S., Huang, Z. H., Bilney, A., Costabile, M., Murray, A. W., Rathjen, D. A., Der, C. J., and Ferrante, A. (1998) J. Biol. Chem. 273: 19277-19282). Phosphorylated ASK-1, myelin basic protein and GST-jun (1-79) were fractionated on 8, 16 and 12% SDS polyacrylamide gels, respectively, and the bands were detected and radioactivity determined using an Instant Imager (Packard Instruments, Canberra, Australia).
# (§4) The level of myelin basic protein phosphorylation was quantitated by an Instant Imager.
# [2] = system: ERK1/ERK2; assay: ERK1/ERK2 dual phosphorylation in HUVEC (western blot); format: cell-based, human; settings: 15 min; TNF 100 U/ml, TNF70-80 10 μM
# Protocol: as §4
# (§5) Western blot analysis was conducted as described previously (Hii, C. S., Huang, Z. H., Bilney, A., Costabile, M., Murray, A. W., Rathjen, D. A., Der, C. J., and Ferrante, A. (1998) J. Biol. Chem. 273: 19277-19282). Briefly, equal amounts of denatured protein from each lysate were separated by 12% SDS polyacrylamide gel electrophoresis (PAGE). The proteins were electrophoretically transferred to nitrocellulose membranes (Schleicher and Schuell, Keene, N. H., USA)(3 h at 40V). […] Immune complexes were visualised by enhanced chemiluminescence (Hii, C. S., Huang, Z. H., Bilney, A., Costabile, M., Murray, A. W., Rathjen, D. A., Der, C. J., and Ferrante, A. (1998) J. Biol. Chem. 273: 19277-19282).
# [3] = system: JNK; assay: JNK activity in adherent neutrophils; format: cell-based, human; settings: neutrophils pre-adhered to plasma-coated dishes; 15 min; TNF 1000 U/ml, TNF70-80 10 μM
# Protocol: as §2
# (§6) KHS (hereon referred to as “GCKR”) activity was assayed as described previously using myelin basic protein as a substrate (Shi, C. S., Leonardi, A., Kyriakis, J., Siebenlist, U., and Kerhl, J. H. (1999) J. Immunol. 163: 3279-3285). ASK-1 activation was determined in immunoprecipitates of ASK-1 by autophosphorylation (Kyriakis, J. M., and Auruch, J. (2001) Physiol. Rev. 81: 807-869). p38 and ERK activities were determined as described using myelin basic protein as a substrate (Hii, C. S., Huang, Z. H., Bilney, A., Costabile, M., Murray, A. W., Rathjen, D. A., Der, C. J., and Ferrante, A. (1998) J. Biol. Chem. 273: 19277-19282). […]
# [4] = system: p38; assay: p38 activity in HUVEC (immunoprecipitation, myelin basic protein substrate); format: cell-based, human; settings: 5 min; TNF 1,000 U/ml, peptides 10 μM
# Protocol: as §4, §3
# [5] = system: ASK-1; assay: ASK-1 autophosphorylation in neutrophils; format: cell-based, human
# Protocol: (§7) GCKR was immunoprecipitated from cell lysates and activity assayed using myelin basic protein (MBP) as the substrate. […] Activation of ASK-1 was determined by kinase autophosphorylation.
# as §3
# [6] = system: ERK; assay: ERK activation in adherent neutrophils; format: cell-based, human; settings: neutrophils pre-adhered to plasma-coated dishes; 15 min; TNF 1000 U/ml, TNF70-80 10 μM
# Protocol: as §2, with “2952-2959). […]” for “2952-2959).”
# as §6
# [7] = system: NFκB; assay: NFκB pathway activation in human neutrophils (nuclear translocation of NFκB); format: cell-based
# Protocol: After cell lysis, nuclear fractions were prepared, nuclear proteins separated by SDS page (12% gel), transferred to nitrocellulose and probed with an anti NFκB p65 antibody (Santa Cruz).
# as §5
# This pathway, akin to the p38 pathway, is dependent on TRAF-2 and RIP (Kyriakis, J. M., and Auruch, J. (2001) Physiol Rev. 81: 807-869). We measured the nuclear translocation of NFκB as an indicator of the activation of this pathway.
# [8] = system: JNK; assay: JNK activation in neutrophils in suspension; format: cell-based, human; settings: 15 min; TNF 100 U/ml, TNF70-80 10 μM, anisomycin 2.5 μg/ml
# Protocol: as §1
# (§8) Neutrophils were prepared from peripheral blood of healthy donors by a rapid single-step technique (Kumaratilake, L. M., Rathjen, D. A., Mack, P., Widmer, F., Prasertsiriroj, V., and Ferrante, A. (1995) J. Clin. Invest. 95: 2315-2323) using Hypaque-Ficoll and according to the institution's guidelines on human ethics. […]
# as §6
# [9] = system: ASK-1; assay: ASK-1 autophosphorylation in HEK293T cells; format: cell-based, human; settings: 3 or 7 min
# Protocol: as §7, §3
# [10] = system: GCKR/GLK; assay: GCKR/GLK activity in adherent neutrophils; format: cell-based, human; settings: plasma-coated dishes; 15 min; TNF 1000 U/ml, TNF70-80 10 μM
# Protocol: as §7, §3
# [11] = system: E-selectin; assay: E-selectin expression on endothelial cells; format: cell-based, human; settings: TNF 100 or 1000 U/ml, TNF70-80 1-50 μM; data not presented
# [12] = system: JNK; assay: JNK activity in HUVEC (GST-jun solid phase assay); format: cell-based, human; settings: 15 min; TNF 100 and 1000 U/ml, TNF70-80 1-50 μM
# Protocol: as §4, §3
# [13] = system: ERK1/ERK2; assay: ERK1/ERK2 activation in neutrophils in suspension; format: cell-based, human; settings: TNF, TNF70-80 15 min; PMA 100 nM 5 min
# Protocol: as §1, §8, §6
substance,measurement,setting,value
PSTHVLITHTI-OH [TNF70-80],activity of p38 in neutrophils in suspension,[1],enhanced the activity of p38
same,dual phosphorylation of the ERKs in HUVEC,[2],caused only negligible phosphorylation of the ERKs
same,activity of JNK in adherent neutrophils,[3],but not TNF70-80 stimulated the activity of JNK
same,activity of p38 in HUVEC,[4],stimulated the activity of p38
same,ASK-1 phosphorylation in non-adherent neutrophils,[5]; data not shown,not altered
same,ASK-1 phosphorylation in adherent neutrophils,"[5]; plasma-coated dishes, 3 or 7 min",neither TNF nor TNF70-80 increased the level of ASK-1 phosphorylation
same,ERK activation in adherent neutrophils,[6],failed to stimulate the activation of the ERKs
same,nuclear translocation of NFκB in neutrophils,"[7]; TNF70-80 10 μM, 30 min or 1 h",caused the translocation of NFκB to the nucleus
same,degradation of IκB,[7]; data not shown,caused the degradation of IκB
same,activity/phosphorylation of JNK in neutrophils in suspension,[8],neither TNF nor TNF70-80 stimulated the activity of either JNK or ERK
same,ASK-1 autophosphorylation in HEK293T cells,[9],did not affect the level of ASK-1 phosphorylation
same,GCKR/GLK activity in adherent neutrophils,[10],poor at stimulating GCKR/GLK activity
same,expression of E-selectin on endothelial cells,[11],but not TNF70-80 (1-50 μM) stimulated the expression of E-selectin
same,activity of JNK in HUVEC,[12],failed to stimulate the activity of JNK
same,activity/dual phosphorylation of ERK in neutrophils in suspension,[13],neither TNF nor TNF70-80 stimulated the activity of either JNK or ERK
